The record followed here is patent US20090270416A1, “N-OXIDES OF DIARYLUREA DERIVATIVES AND THEIR USE AS Chk1 INHIBITORS FOR THE TREATMENT OF CANCER” (SENTINEL ONCOLOGY LIMITED, priority 2006, published 2009).

For one series, the target named is T1, hERG potassium channel (Homo sapiens, UniProt Q12809).
T1 construct: expressed in transfected cells; host or cells: HEK-293
Description: Functional hERG assay (patch clamp, HEK-293 cells). It is filed as cell-based. Particulars: 5-point dose response, triplicate. The procedure:
The N-oxide compounds of the invention and their tertiary amine precursors were each tested for hERG inhibiting activity using the method of Zhou Z, Gong Q, Ye B, Fan Z, Makielski J C, Robertson G A, January C T. Biophys J. 1998 January; 74(1):230-41.
Test compounds were tested in triplicate in a 5-point dose response curve on HEK-293 cells stably expressing the hERG potassium channel. Potassium current was measured using the patch clamp technique on a Molecular Devices Patch Express 7000. hERG channels were activated by 2 second pulses to +20 mV from a holding potential of −80 mV, and peak tail currents were recorded upon repolarization to −50 mV. This voltage-clamp pulse protocol was performed continuously during the experiment (vehicle control, test compound, washout, and positive control additions). An interpulse interval of 15 seconds allowed recovery from any residual inactivation. Test compounds were incubated with cells between 3-8 minutes until the current reached a steady state level, defined by a Standard Deviation of 0.01. After the final test compound concentration was tested, test compound was washed out with continuous perfusion of extracellular solution for 3 minutes, followed by application of positive control (10 μM Cisparide).
Test compounds were diluted in 100% DMSO at 1000× the highest concentration to be tested, vortexed, and sonicated. Visual inspection determined that compounds were completely solubilized. Test compounds were then diluted into glass vials in 100% DMSO for all test concentrations at 1000× the final concentration to be tested and vortexed. Test compounds were then diluted 1:1000 into extracellular solution and vortexed to achieve final concentration for testing. Final DMSO concentration was 0.1% for all concentrations of test compounds, Vehicle (negative) control, and Cisapride (positive) control in extracellular solution. The compositions of the solutions used were as follows:
Intracellular Soln (mM): KCl 130, EDTA 5, MgCl2 5, HEPES10, Na-ATP 5, pH=7.2 Extracellular Soln (mM): NaCl 137, KCl 4, CaCl2 1.8, MgCl2 1, Dextrose 11, HEPES 10, pH=7.4
(In general: Block of hERG is tested as a sign of cardiac risk.)

For the next series, the target named is T2, CHK1 (h) (Homo sapiens, UniProt O14757).
T2 construct: purchased Upstate Ltd (assay run at Upstate)
T2 sequence (O14757 1-476): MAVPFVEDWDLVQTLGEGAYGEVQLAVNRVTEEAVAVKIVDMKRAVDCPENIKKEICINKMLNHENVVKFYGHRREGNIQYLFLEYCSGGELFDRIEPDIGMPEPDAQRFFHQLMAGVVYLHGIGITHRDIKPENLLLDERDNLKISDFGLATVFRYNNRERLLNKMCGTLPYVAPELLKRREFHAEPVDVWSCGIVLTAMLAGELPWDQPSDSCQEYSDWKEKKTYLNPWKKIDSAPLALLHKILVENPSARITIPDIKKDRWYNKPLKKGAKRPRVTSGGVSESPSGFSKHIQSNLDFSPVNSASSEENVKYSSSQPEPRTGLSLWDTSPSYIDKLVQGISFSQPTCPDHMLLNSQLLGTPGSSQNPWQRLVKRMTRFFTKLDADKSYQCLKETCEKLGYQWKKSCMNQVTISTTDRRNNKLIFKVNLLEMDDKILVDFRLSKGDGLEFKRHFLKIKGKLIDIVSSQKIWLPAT
In words: Chk-1 kinase inhibiting activity (Upstate radiometric assay). It is filed as biochemical. The procedure: The N-oxide compounds of the invention and their tertiary amine precursors were tested for activity against the Chk-1 kinase.
The Chk-1 assay was conducted at Upstate Ltd, Gemini Crescent, Dundee Technology Park, Dundee, DD2 1 SW, UK in accordance with the protocol set out below. In a final reaction volume of 25 μl, CHK1 (h) (5-10 mU) is incubated with 8 mM MOPS pH 7.0, 0.2 mM EDTA, 200 μM […], 10 mM MgAcetate and γ-33P-ATP] (specific activity approx. 500 cpm/pmol, concentration as required). The reaction is initiated by the addition of the MgATP mix. After incubation for 40 minutes at room temperature, the reaction is stopped by the addition of 5 μl of a 3% phosphoric acid solution. 10 μl of the reaction mixture is then spotted onto a P30 filtermat and washed three times for 5 minutes in 75 mM phosphoric acid and once in methanol prior to drying and scintillation counting.

Series [1] has as its target T3, human potassium channel hERG (Homo sapiens, UniProt Q12809).
T3 construct: expressed in transfected cells; host or cells: HEK-293
In words: hERG binding activity ([3H] astemizole displacement, HEK-293 membranes). Conditions: 1.5 nM [3H] astemizole; for IC50: 60 minutes at 25° C.; for HERG Binding % @ 100 uM (extent of binding): @ 100 uM test compound. Here is the method:
The abilities of the N-oxide compounds of the invention and their tertiary amine precursors were tested using the assay described below.
Human recombinant HEK-293 cells stably transfected with a plasmid encoding the human potassium channel hERG were used to prepare membranes in modified HEPES pH 7.4 buffer using standard techniques. A 10 μg aliquot of membrane was incubated with 1.5 nM [^3H] astemizole in the presence of varying concentrations of test compound for 60 minutes at 25° C. The membranes were then filtered and washed three times and the filters were counted to determine the [^3H] astemizole specifically bound. From the counts, the extent of binding of the test compound and, in some cases, the IC50 values of the test compounds, were determined.

Another series relates to other kinases. In words: Kinase selectivity screen (Upstate), panel as a whole. It counts as biochemical, human. Conditions: 10 μM compound; summary of Table 5. The procedure: (§1) The compound of Example 1F was tested (Upstate) against a number of other kinases and the results are set out in Table 5 below.
A further series addresses T4, cKit(h) (Homo sapiens, UniProt P10721).
T4 construct: purchased Upstate
In words: Kinase selectivity screen (Upstate). It counts as biochemical. Particulars: 10 μM compound; ATP 200 μM; N = 2. The procedure:
as §1

The next series has as its target T5, Tie2(h) (Homo sapiens, UniProt Q02763).
T5 construct: purchased Upstate
Description: Kinase selectivity screen (Upstate). It counts as biochemical. Conditions: 10 μM compound; ATP 200 μM; N = 2. Here is the method: as §1

A further series deals with T6, IGF-1R(h) (Homo sapiens, UniProt P08069).
T6 construct: purchased Upstate
Description: Kinase selectivity screen (Upstate). It counts as biochemical. Conditions: 10 μM compound; ATP 200 μM; N = 2. The procedure: as §1

In the next series the target is T7, KDR(h) (Homo sapiens, UniProt P35968).
T7 construct: purchased Upstate
Description: Kinase selectivity screen (Upstate). Conditions: 10 μM compound; ATP 90 μM; N = 2. It is filed as biochemical. Here is the method:
as §1

The next series deals with T8, ZAP-70(h) (Homo sapiens, UniProt P43403).
T8 construct: purchased Upstate
Description: Kinase selectivity screen (Upstate). It is filed as biochemical. Particulars: 10 μM compound; ATP 15 μM; N = 2. The procedure:
as §1

The target of a further series is T9, cSRC(h) (Homo sapiens, UniProt P12931).
T9 construct: purchased Upstate
Description: Kinase selectivity screen (Upstate). It counts as biochemical. Conditions: 10 μM compound; ATP 200 μM; N = 2. Here is the method: as §1

A further series deals with T10, Flt3(h) (Homo sapiens, UniProt P36888).
T10 construct: purchased Upstate
Description: Kinase selectivity screen (Upstate). It is filed as biochemical. Particulars: 10 μM compound; ATP 200 μM; N = 2. Here is the method:
as §1

A further series addresses T11, JNK1α1(h) (Homo sapiens, UniProt P45983).
T11 construct: purchased Upstate
Description: Kinase selectivity screen (Upstate). Particulars: 10 μM compound; ATP 45 μM; N = 2. It counts as biochemical. Here is the method:
as §1

The next series concerns the target T12, PKA(h) (Homo sapiens, UniProt P17612).
T12 construct: purchased Upstate
In words: Kinase selectivity screen (Upstate). It counts as biochemical. Conditions: 10 μM compound; ATP 10 μM; N = 2. The procedure:
as §1

A further series addresses T13, CHK2(h) (Homo sapiens, UniProt O96017).
T13 construct: purchased Upstate
Description: Kinase selectivity screen (Upstate). It is filed as biochemical. Conditions: 10 μM compound; ATP 70 μM; N = 2. Here is the method: as §1

The target in a further series is T14, MEK1(h) (Homo sapiens, UniProt Q02750).
T14 construct: purchased Upstate
In words: Kinase selectivity screen (Upstate). It counts as biochemical. Particulars: 10 μM compound; ATP 10 μM; N = 2. The procedure:
as §1

The next series addresses T15, CDK2/cyclinE(h) (Homo sapiens, UniProt P24941).
T15 construct: purchased Upstate
Description: Kinase selectivity screen (Upstate). It counts as biochemical. Particulars: 10 μM compound; ATP 120 μM; N = 2. The procedure:
as §1

Another series concerns the target T16, MAPK2(h) (Homo sapiens, UniProt P28482).
T16 construct: purchased Upstate
Description: Kinase selectivity screen (Upstate). Particulars: 10 μM compound; ATP 155 μM; N = 2. It counts as biochemical. The procedure: as §1

Another series has as its target T17, Fms(h) (Homo sapiens, UniProt P07333).
T17 construct: purchased Upstate
Description: Kinase selectivity screen (Upstate). It is filed as biochemical. Particulars: 10 μM compound; ATP 200 μM; N = 2. Here is the method: as §1

Another series concerns the target T18, Yes(h) (Homo sapiens, UniProt P07947).
T18 construct: purchased Upstate
Description: Kinase selectivity screen (Upstate). Particulars: 10 μM compound; ATP 45 μM; N = 2. It counts as biochemical. The procedure: as §1

The target of a further series is T19, PKCθ(h) (Homo sapiens, UniProt Q04759).
T19 construct: purchased Upstate
Description: Kinase selectivity screen (Upstate). Conditions: 10 μM compound; ATP 15 μM; N = 2. It counts as biochemical. The procedure:
as §1

The next series deals with T20, FGFR1(h) (Homo sapiens, UniProt P11362).
T20 construct: purchased Upstate
Description: Kinase selectivity screen (Upstate). Particulars: 10 μM compound; ATP 200 μM; N = 2. It counts as biochemical. Here is the method: as §1

Another series addresses T21, Aurora-A(h) (Homo sapiens, UniProt O14965).
T21 construct: purchased Upstate
Description: Kinase selectivity screen (Upstate). It counts as biochemical. Particulars: 10 μM compound; ATP 15 μM; N = 2. The procedure:
as §1

Another series has as its target T22, PDGFRβ(h) (Homo sapiens, UniProt P09619).
T22 construct: purchased Upstate
Description: Kinase selectivity screen (Upstate). It is filed as biochemical. Particulars: 10 μM compound; ATP 200 μM; N = 2. The procedure: as §1

The next series addresses T23, Pim-1(h) (Homo sapiens, UniProt P11309).
T23 construct: purchased Upstate
In words: Kinase selectivity screen (Upstate). It is filed as biochemical. Conditions: 10 μM compound; ATP 90 μM; N = 2. Here is the method: as §1

The next series deals with T24, NEK2(h) (Homo sapiens, UniProt P51955).
T24 construct: purchased Upstate
In words: Kinase selectivity screen (Upstate). It counts as biochemical. Particulars: 10 μM compound; ATP 120 μM; N = 2. Here is the method: as §1

Another series concerns the target T25, EGFR(h) (Homo sapiens, UniProt P00533).
T25 construct: purchased Upstate
In words: Kinase selectivity screen (Upstate). It counts as biochemical. Conditions: 10 μM compound; ATP 10 μM; N = 2. Here is the method: as §1

The structures appear in SMILES notation.

T3 sequence (Q12809 whole entry): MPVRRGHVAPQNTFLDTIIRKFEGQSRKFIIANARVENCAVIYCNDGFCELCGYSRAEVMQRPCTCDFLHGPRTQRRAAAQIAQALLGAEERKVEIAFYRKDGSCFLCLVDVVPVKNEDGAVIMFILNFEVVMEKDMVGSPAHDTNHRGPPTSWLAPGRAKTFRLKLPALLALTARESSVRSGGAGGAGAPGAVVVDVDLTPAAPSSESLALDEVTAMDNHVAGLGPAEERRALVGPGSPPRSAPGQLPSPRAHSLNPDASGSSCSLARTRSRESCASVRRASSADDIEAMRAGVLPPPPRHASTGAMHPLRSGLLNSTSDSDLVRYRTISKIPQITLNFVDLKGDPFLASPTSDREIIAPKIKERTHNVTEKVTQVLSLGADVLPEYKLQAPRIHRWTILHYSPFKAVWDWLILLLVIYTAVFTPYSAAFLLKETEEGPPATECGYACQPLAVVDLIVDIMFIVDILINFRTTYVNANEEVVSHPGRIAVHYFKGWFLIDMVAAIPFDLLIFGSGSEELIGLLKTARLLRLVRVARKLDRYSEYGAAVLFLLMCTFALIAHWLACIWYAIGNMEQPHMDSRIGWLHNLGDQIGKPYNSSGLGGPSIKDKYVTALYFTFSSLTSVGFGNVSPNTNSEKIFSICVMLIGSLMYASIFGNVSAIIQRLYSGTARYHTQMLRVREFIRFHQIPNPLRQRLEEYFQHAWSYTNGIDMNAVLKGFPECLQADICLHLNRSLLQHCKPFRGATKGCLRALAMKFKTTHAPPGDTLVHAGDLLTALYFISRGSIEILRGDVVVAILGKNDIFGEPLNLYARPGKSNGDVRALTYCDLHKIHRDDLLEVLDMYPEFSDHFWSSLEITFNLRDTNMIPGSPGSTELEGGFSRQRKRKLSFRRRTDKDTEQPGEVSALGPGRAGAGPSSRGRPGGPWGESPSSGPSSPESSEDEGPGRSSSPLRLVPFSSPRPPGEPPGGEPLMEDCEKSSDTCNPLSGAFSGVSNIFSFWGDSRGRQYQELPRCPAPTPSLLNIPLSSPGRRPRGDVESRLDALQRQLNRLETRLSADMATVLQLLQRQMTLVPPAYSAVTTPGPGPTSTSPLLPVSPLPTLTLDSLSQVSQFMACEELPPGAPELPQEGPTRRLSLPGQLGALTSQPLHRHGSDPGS
T1 sequence (Q12809 whole entry): as above
T20 sequence (P11362 22-822): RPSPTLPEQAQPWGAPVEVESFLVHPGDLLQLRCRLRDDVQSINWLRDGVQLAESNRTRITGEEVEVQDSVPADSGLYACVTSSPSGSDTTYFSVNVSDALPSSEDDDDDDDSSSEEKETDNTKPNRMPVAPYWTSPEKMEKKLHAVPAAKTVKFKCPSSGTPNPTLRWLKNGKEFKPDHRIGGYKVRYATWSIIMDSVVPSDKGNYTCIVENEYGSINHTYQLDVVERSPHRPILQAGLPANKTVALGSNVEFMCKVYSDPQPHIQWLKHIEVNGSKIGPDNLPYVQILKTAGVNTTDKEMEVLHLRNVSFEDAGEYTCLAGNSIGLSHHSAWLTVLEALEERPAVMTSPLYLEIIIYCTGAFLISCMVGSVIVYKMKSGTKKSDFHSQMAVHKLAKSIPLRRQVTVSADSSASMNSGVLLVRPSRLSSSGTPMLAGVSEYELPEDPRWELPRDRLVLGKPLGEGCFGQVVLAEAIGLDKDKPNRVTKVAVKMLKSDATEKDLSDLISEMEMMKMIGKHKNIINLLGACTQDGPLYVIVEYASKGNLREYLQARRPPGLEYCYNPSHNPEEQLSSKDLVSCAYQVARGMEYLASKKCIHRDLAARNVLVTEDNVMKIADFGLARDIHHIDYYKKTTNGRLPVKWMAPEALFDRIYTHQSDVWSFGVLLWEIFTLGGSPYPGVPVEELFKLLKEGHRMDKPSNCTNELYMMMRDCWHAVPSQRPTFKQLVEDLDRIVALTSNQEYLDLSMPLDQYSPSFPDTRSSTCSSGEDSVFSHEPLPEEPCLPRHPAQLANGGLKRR
T7 sequence (P35968 20-1356): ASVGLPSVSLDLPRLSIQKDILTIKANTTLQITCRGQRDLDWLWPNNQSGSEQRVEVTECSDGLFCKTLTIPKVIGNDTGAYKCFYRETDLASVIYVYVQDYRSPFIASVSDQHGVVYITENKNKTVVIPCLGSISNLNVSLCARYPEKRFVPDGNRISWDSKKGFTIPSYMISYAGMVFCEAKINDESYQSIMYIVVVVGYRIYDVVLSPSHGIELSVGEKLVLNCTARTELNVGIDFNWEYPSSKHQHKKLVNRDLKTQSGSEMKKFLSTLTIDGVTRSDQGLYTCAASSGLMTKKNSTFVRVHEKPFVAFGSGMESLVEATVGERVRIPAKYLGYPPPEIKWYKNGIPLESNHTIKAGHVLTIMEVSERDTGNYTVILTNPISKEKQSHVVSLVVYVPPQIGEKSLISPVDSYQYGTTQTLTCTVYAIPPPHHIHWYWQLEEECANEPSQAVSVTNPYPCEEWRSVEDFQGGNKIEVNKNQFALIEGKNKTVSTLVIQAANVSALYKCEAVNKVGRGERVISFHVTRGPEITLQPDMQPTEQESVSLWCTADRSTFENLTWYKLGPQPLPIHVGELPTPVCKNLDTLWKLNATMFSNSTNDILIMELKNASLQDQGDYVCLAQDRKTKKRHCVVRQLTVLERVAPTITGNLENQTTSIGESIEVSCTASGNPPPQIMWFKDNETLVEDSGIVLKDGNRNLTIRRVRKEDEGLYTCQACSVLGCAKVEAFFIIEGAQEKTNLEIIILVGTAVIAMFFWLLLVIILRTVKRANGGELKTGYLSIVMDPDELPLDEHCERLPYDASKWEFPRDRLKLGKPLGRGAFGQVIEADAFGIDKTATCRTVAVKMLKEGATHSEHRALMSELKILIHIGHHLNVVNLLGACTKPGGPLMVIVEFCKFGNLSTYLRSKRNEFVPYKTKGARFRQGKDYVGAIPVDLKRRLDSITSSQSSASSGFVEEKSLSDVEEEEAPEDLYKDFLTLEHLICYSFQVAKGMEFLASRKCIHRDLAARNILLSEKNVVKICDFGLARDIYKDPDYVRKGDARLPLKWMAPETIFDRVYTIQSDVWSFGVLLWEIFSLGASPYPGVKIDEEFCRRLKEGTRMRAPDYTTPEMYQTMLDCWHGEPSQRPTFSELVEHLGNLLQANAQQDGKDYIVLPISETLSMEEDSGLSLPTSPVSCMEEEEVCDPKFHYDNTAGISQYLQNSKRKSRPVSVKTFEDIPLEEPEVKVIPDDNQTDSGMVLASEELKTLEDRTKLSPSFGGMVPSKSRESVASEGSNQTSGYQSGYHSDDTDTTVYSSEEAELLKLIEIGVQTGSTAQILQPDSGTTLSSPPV
T18 sequence (P07947 whole entry): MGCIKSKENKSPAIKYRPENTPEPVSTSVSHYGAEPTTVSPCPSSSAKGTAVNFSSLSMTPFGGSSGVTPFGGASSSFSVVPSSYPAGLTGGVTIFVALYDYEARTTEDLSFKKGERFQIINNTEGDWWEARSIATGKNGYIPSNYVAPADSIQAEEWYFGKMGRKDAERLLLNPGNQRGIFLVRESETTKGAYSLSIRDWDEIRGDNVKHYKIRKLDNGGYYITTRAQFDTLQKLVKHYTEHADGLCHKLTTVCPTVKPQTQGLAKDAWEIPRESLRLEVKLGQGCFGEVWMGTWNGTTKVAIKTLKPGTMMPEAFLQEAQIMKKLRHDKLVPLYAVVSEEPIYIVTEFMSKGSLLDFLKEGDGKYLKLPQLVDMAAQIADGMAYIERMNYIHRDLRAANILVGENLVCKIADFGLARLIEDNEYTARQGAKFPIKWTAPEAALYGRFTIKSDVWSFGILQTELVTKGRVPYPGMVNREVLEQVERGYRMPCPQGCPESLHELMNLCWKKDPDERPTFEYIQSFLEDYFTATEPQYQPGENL

By IC50 is commonly meant the concentration needed to halve the response being measured. With `CN(C)CCCOc1ccc(Cl)cc1NC(=O)Nc1cnccn1` [Example 1C, 1-[5-Chloro-2-(3-dimethyloxyamino-propoxy)-phenyl]-3-pyrazin-2-yl-urea], the results for the IC50 (at hERG potassium channel; at CHK1 (h); in [1]) were 108 nM, 41 nM and 5030 nM, respectively.

In general, inhibition refers to the share of the control response that was lost under treatment. With `C[N+](C)([O-])CCCOc1ccc(Cl)cc1NC(=O)Nc1cnccn1` [Example 1F], the half-maximal inhibitory concentration (IC50) was 26700 nM against hERG potassium channel and 71 nM on CHK1 (h). Besides, the “activity against most other kinases apart from CHK2, FGFR1 and Flt3” value with other kinases is “largely inactive or only poorly active”. In addition, the inhibition at 10 µM came to 0% on cKit(h); 11% on Tie2(h); 36% at IGF-1R(h); 38% against KDR(h); 5% against ZAP-70(h); 11% against cSRC(h). Moreover, the inhibition at 10 µM on Flt3(h) was 73%; on JNK1α1(h), 0%; against PKA(h) it was 0%; on CHK2(h) it was 71%; against MEK1(h), 0%; against CDK2/cyclinE(h), 0%. Further, the inhibition at 10 µM amounted to 0% against MAPK2(h); 12% on Fms(h); 0% against Yes(h); 37% on PKCθ(h); 92% on FGFR1(h); 14% against Aurora-A(h). The inhibition at 10 µM came to 1% at PDGFRβ(h), 0% at Pim-1(h), 0% on NEK2(h) and 0% against EGFR(h). Also, the “HERG Binding % @ 100 uM (extent of binding)” value in series [1] is reported as 35% @ 100 uM.

Regarding `Cc1cnc(NC(=O)Nc2cc(Cl)ccc2OCCCN(C)C)cn1` [Example 2B, 1-[5-Chloro-2-(3-dimethylamino-propoxy)-phenyl]-3-(5-methyl-pyrazin-2-yl)-urea], the IC50 was 610 nM against hERG potassium channel, 51 nM against CHK1 (h) and 2980 nM in [1].

Consider `Cc1cnc(NC(=O)Nc2cc(Cl)ccc2OCCC[N+](C)(C)[O-])cn1` [Example 2C, 1-[5-Chloro-2-(3-dimethyloxyamino-propoxy)-phenyl]-3-(5-methyl-pyrazin-2-yl)-urea], for which the values for the IC50 on hERG potassium channel and against CHK1 (h) were above 30000 nM and 128 nM, respectively. Besides, the “HERG Binding % @ 100 uM (extent of binding)” value in series [1] is reported as 3% @ 100 uM.
